Test system: 926638-142-R-J1-PDC complex spheroid viability
Experiment: Anticancer human tumor 926638-142-R-J1-PDC patient-derived endometrial carcinoma cell line growth inhibition [POLQ]
Details: for IC50: curve of first compound; for viability, T/C: stronger effect = lower value
In short: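 Growth inhibition in 3D: complex spheroids (tumor PDC, HUVEC, MSC) treated with POLQ inhibitor combinations; where Cmax unknown, highest tested concentration 10 microM, except SN-38 at 1 microM.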

[1] = second compound 0.0316 µM, first compound 0.0316 µM
[2] = second compound 0.0316 µM, first compound 0.1 µM
[3] = second compound 0.0316 µM, first compound 0.316 µM
[4] = second compound 0.0316 µM, first compound 1 µM
[5] = second compound 0.0316 µM, first compound 3.16 µM
[6] = second compound 0.0316 µM, first compound 10 µM
[7] = second compound 0.1 µM, first compound 0.0316 µM
[8] = second compound 0.1 µM, first compound 0.1 µM
[9] = second compound 0.1 µM, first compound 0.316 µM
[10] = second compound 0.1 µM, first compound 1 µM
[11] = second compound 0.1 µM, first compound 3.16 µM
[12] = second compound 0.1 µM, first compound 10 µM
[13] = second compound 0.316 µM, first compound 0.0316 µM
[14] = second compound 0.316 µM, first compound 0.1 µM
[15] = second compound 0.316 µM, first compound 0.316 µM
[16] = second compound 0.316 µM, first compound 1 µM
[17] = second compound 0.316 µM, first compound 3.16 µM
[18] = second compound 0.316 µM, first compound 10 µM
[19] = second compound 1 µM, first compound 0.0316 µM
[20] = second compound 1 µM, first compound 0.1 µM
[21] = second compound 1 µM, first compound 0.316 µM
[22] = second compound 1 µM, first compound 1 µM
[23] = second compound 1 µM, first compound 3.16 µM
[24] = second compound 1 µM, first compound 10 µM
[25] = second compound 3.16 µM, first compound 0.0316 µM
[26] = second compound 3.16 µM, first compound 0.1 µM
[27] = second compound 3.16 µM, first compound 0.316 µM
[28] = second compound 3.16 µM, first compound 1 µM
[29] = second compound 3.16 µM, first compound 3.16 µM
[30] = second compound 3.16 µM, first compound 10 µM
[31] = second compound 10 µM, first compound 0.0316 µM
[32] = second compound 10 µM, first compound 0.1 µM
[33] = second compound 10 µM, first compound 0.316 µM
[34] = second compound 10 µM, first compound 1 µM
[35] = second compound 10 µM, first compound 3.16 µM
[36] = second compound 10 µM, first compound 10 µM
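Further: spheroids exposed to drugs for one week before readout.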
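Wherever viability, T/C is given: percent viability relative to DMSO vehicle control wells set as 100%.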

C#Cc1c(F)ccc2cc(O)cc(-c3ncc4c(N5CC6CCC(C5)N6)nc(OCC56CCCN5CC(F)C6)nc4c3F)c12 (stereo not given) + Nc1ccc(C#CCN(C(=O)Cc2ncc(C(F)(F)F)cc2C(F)(F)F)c2ccc(F)cc2)nn1
IC50 (second compound 0.0316 µM): > 10000 nM
IC50 (second compound 0.1 µM): > 10000 nM
IC50 (second compound 0.316 µM): > 10000 nM
IC50 (second compound 1 µM): > 10000 nM
IC50 (second compound 3.16 µM): > 10000 nM
IC50 (second compound 10 µM): > 10000 nM
viability, T/C [1]: 97.8%
viability, T/C [2]: 95%
viability, T/C [3]: 83.7%
viability, T/C [4]: 80.1%
viability, T/C [5]: 71.8%
viability, T/C [6]: 64.5%
viability, T/C [7]: 125%
viability, T/C [8]: 83.2%
viability, T/C [9]: 79.1%
viability, T/C [10]: 82.2%
viability, T/C [11]: 75.9%
viability, T/C [12]: 71.2%
viability, T/C [13]: 84.4%
viability, T/C [14]: 101%
viability, T/C [15]: 84.2%
viability, T/C [16]: 76.7%
viability, T/C [17]: 79.8%
viability, T/C [18]: 59.3%
viability, T/C [19]: 105%
viability, T/C [20]: 101%
viability, T/C [21]: 89.4%
viability, T/C [22]: 85.6%
viability, T/C [23]: 81.2%
viability, T/C [24]: 59.2%
viability, T/C [25]: 88%
viability, T/C [26]: 93.4%
viability, T/C [27]: 74.2%
viability, T/C [28]: 87%
viability, T/C [29]: 80.3%
viability, T/C [30]: 66.3%
viability, T/C [31]: 99.1%
viability, T/C [32]: 78.2%
viability, T/C [33]: 80%
viability, T/C [34]: 70.7%
viability, T/C [35]: 79.3%
viability, T/C [36]: 53.1%

C=CC(=O)N1CCN(c2nc(=O)n(-c3c(C)ccnc3C(C)C)c3nc(-c4c(O)cccc4F)c(F)cc23)C(C)C1 (stereo not given) + Nc1ccc(C#CCN(C(=O)Cc2ncc(C(F)(F)F)cc2C(F)(F)F)c2ccc(F)cc2)nn1
IC50 (second compound 0.0316 µM): > 10000 nM
IC50 (second compound 0.1 µM): > 10000 nM
IC50 (second compound 0.316 µM): > 10000 nM
IC50 (second compound 1 µM): > 10000 nM
IC50 (second compound 3.16 µM): > 10000 nM
IC50 (second compound 10 µM): > 10000 nM
viability, T/C [1]: 93.4%
viability, T/C [2]: 106%
viability, T/C [3]: 98.1%
viability, T/C [4]: 92.5%
viability, T/C [5]: 88.4%
viability, T/C [6]: 52.5%
viability, T/C [7]: 107%
viability, T/C [8]: 103%
viability, T/C [9]: 93.2%
viability, T/C [10]: 86.6%
viability, T/C [11]: 87.8%
viability, T/C [12]: 55.8%
viability, T/C [13]: 108%
viability, T/C [14]: 91%
viability, T/C [15]: 79.8%
viability, T/C [16]: 90.1%
viability, T/C [17]: 86.4%
viability, T/C [18]: 53%
viability, T/C [19]: 106%
viability, T/C [20]: 86.8%
viability, T/C [21]: 94.6%
viability, T/C [22]: 82.3%
viability, T/C [23]: 85.1%
viability, T/C [24]: 53.5%
viability, T/C [25]: 93%
viability, T/C [26]: 99.7%
viability, T/C [27]: 89.5%
viability, T/C [28]: 93.6%
viability, T/C [29]: 73.8%
viability, T/C [30]: 53.8%
viability, T/C [31]: 94.4%
viability, T/C [32]: 98.5%
viability, T/C [33]: 78.2%
viability, T/C [34]: 78.7%
viability, T/C [35]: 87%
viability, T/C [36]: 60.4%

CC1COCCN1c1cc(C2(O)CC3CCC(C2)O3)c2cnn(-c3ccn[nH]3)c2n1 (stereo not given) + Nc1ccc(C#CCN(C(=O)Cc2ncc(C(F)(F)F)cc2C(F)(F)F)c2ccc(F)cc2)nn1
IC50 (second compound 0.0316 µM): 197 nM
IC50 (second compound 0.1 µM): 200 nM
IC50 (second compound 0.316 µM): 191 nM
IC50 (second compound 1 µM): 199 nM
IC50 (second compound 3.16 µM): 198 nM
IC50 (second compound 10 µM): 186 nM
viability, T/C [1]: 96.6%
viability, T/C [2]: 66.5%
viability, T/C [3]: 40.1%
viability, T/C [4]: 14.8%
viability, T/C [5]: 8.94%
viability, T/C [6]: 4.04%
viability, T/C [7]: 105%
viability, T/C [8]: 69.9%
viability, T/C [9]: 36.8%
viability, T/C [10]: 16.9%
viability, T/C [11]: 10.6%
viability, T/C [12]: 4.15%
viability, T/C [13]: 102%
viability, T/C [14]: 68.9%
viability, T/C [15]: 33.4%
viability, T/C [16]: 19.8%
viability, T/C [17]: 9.43%
viability, T/C [18]: 3.41%
viability, T/C [19]: 88.3%
viability, T/C [20]: 71%
viability, T/C [21]: 35.8%
viability, T/C [22]: 14%
viability, T/C [23]: 9.22%
viability, T/C [24]: 3.83%
viability, T/C [25]: 82.5%
viability, T/C [26]: 69%
viability, T/C [27]: 36.6%
viability, T/C [28]: 15.3%
viability, T/C [29]: 8.76%
viability, T/C [30]: 3.76%
viability, T/C [31]: 73.6%
viability, T/C [32]: 75.1%
viability, T/C [33]: 29.3%
viability, T/C [34]: 15.8%
viability, T/C [35]: 10.8%
viability, T/C [36]: 3.69%

CCc1cc2c(N3CCc4c(cc(Cn5ccnc5)cc4-c4cn(C)nc4C(F)(F)F)C3=O)ccnc2c(OC)n1 + Nc1ccc(C#CCN(C(=O)Cc2ncc(C(F)(F)F)cc2C(F)(F)F)c2ccc(F)cc2)nn1
IC50 (second compound 0.0316 µM): 1060 nM
IC50 (second compound 0.1 µM): 879 nM
IC50 (second compound 0.316 µM): 713 nM
IC50 (second compound 1 µM): 931 nM
IC50 (second compound 3.16 µM): 578 nM
IC50 (second compound 10 µM): 757 nM
viability, T/C [1]: 88.5%
viability, T/C [2]: 73.4%
viability, T/C [3]: 59.6%
viability, T/C [4]: 54.3%
viability, T/C [5]: 38.7%
viability, T/C [6]: 26.6%
viability, T/C [7]: 81.5%
viability, T/C [8]: 77.6%
viability, T/C [9]: 59.8%
viability, T/C [10]: 49.8%
viability, T/C [11]: 36.8%
viability, T/C [12]: 29.6%
viability, T/C [13]: 88.8%
viability, T/C [14]: 73.4%
viability, T/C [15]: 53.4%
viability, T/C [16]: 48.1%
viability, T/C [17]: 41.2%
viability, T/C [18]: 29.4%
viability, T/C [19]: 83.7%
viability, T/C [20]: 67.3%
viability, T/C [21]: 62.4%
viability, T/C [22]: 45.3%
viability, T/C [23]: 44.8%
viability, T/C [24]: 33.3%
viability, T/C [25]: 68.3%
viability, T/C [26]: 70.5%
viability, T/C [27]: 58%
viability, T/C [28]: 41.7%
viability, T/C [29]: 38.2%
viability, T/C [30]: 31.7%
viability, T/C [31]: 86.4%
viability, T/C [32]: 67.2%
viability, T/C [33]: 59.8%
viability, T/C [34]: 48.5%
viability, T/C [35]: 37.3%
viability, T/C [36]: 32.4%

COc1cc2cc(C(=O)CCC(=O)O)sc2cc1OC + Nc1ccc(C#CCN(C(=O)Cc2ncc(C(F)(F)F)cc2C(F)(F)F)c2ccc(F)cc2)nn1
IC50 (second compound 0.0316 µM): > 10000 nM
IC50 (second compound 0.1 µM): > 10000 nM
IC50 (second compound 0.316 µM): > 10000 nM
IC50 (second compound 1 µM): > 10000 nM
IC50 (second compound 3.16 µM): > 10000 nM
IC50 (second compound 10 µM): > 10000 nM
viability, T/C [1]: 101%
viability, T/C [2]: 99.4%
viability, T/C [3]: 104%
viability, T/C [4]: 98.5%
viability, T/C [5]: 104%
viability, T/C [6]: 70%
viability, T/C [7]: 111%
viability, T/C [8]: 97.8%
viability, T/C [9]: 91.1%
viability, T/C [10]: 96.4%
viability, T/C [11]: 104%
viability, T/C [12]: 103%
viability, T/C [13]: 110%
viability, T/C [14]: 105%
viability, T/C [15]: 107%
viability, T/C [16]: 102%
viability, T/C [17]: 112%
viability, T/C [18]: 99.9%
viability, T/C [19]: 111%
viability, T/C [20]: 108%
viability, T/C [21]: 90.4%
viability, T/C [22]: 101%
viability, T/C [23]: 112%
viability, T/C [24]: 85.1%
viability, T/C [25]: 110%
viability, T/C [26]: 93.9%
viability, T/C [27]: 105%
viability, T/C [28]: 101%
viability, T/C [29]: 104%
viability, T/C [30]: 88.4%
viability, T/C [31]: 89.3%
viability, T/C [32]: 101%
viability, T/C [33]: 83.4%
viability, T/C [34]: 85.2%
viability, T/C [35]: 96.4%
viability, T/C [36]: 87.8%

From PubChem BioAssay AID1963826 (Molecular Pharmacology Branch, DTP, NCI, 2024)
